Results: the NIST ThermoML archive (doi:10.1016/j.fluid.2010.03.010)

Settings: for surface tension liquid-gas: Wilhelmg Plate Tensimeter; for mass density: Liquid, Vibrating tube method

CCOS(=O)(=O)[O-].CCn1cc[n+](C)c1 [1-ethyl-3-methylimidazolium ethyl sulfate]
Settings | surface tension liquid-gas [mN/m]
292.91 K | 47.16
298.26 K | 46.9
303 K | 46.59
308.61 K | 46.35
313.41 K | 46.12
322.71 K | 45.5
332.09 K | 45.08

Settings | mass density [kg/m3]
293.15 K, 100 kPa | 1241.3
293.15 K, 101.33 kPa | 1241.37
293.15 K, 250 kPa | 1241.4
293.15 K, 500 kPa | 1241.4
293.15 K, 1000 kPa | 1241.7
293.15 K, 1990 kPa | 1242.1
293.15 K, 4990 kPa | 1243.3
293.15 K, 10010 kPa | 1245.3
293.15 K, 14990 kPa | 1247.2
293.15 K, 20000 kPa | 1249.2
293.15 K, 24990 kPa | 1251.1
293.15 K, 30010 kPa | 1253
293.15 K, 35000 kPa | 1254.8
293.15 K, 40000 kPa | 1256.6
293.15 K, 45000 kPa | 1258.4
293.15 K, 50000 kPa | 1260.2
293.15 K, 55000 kPa | 1262
293.15 K, 60000 kPa | 1263.7
294.15 K, 101.33 kPa | 1240.67
295.15 K, 101.33 kPa | 1239.97
296.15 K, 101.33 kPa | 1239.28
297.15 K, 101.33 kPa | 1238.58
298.15 K, 101.33 kPa | 1237.88
299.15 K, 101.33 kPa | 1237.19
300.15 K, 101.33 kPa | 1236.5
301.15 K, 101.33 kPa | 1235.81
302.15 K, 101.33 kPa | 1235.12
303.15 K, 100 kPa | 1234.3
303.15 K, 101.33 kPa | 1234.43
303.15 K, 250 kPa | 1234.4
303.15 K, 500 kPa | 1234.5
303.15 K, 1000 kPa | 1234.7
303.15 K, 2010 kPa | 1235.1
303.15 K, 4990 kPa | 1236.3
303.15 K, 10010 kPa | 1238.4
303.15 K, 14990 kPa | 1240.4
303.15 K, 20000 kPa | 1242.4
303.15 K, 24990 kPa | 1244.3
303.15 K, 30010 kPa | 1246.3
303.15 K, 35010 kPa | 1248.1
303.15 K, 40000 kPa | 1250
303.15 K, 45000 kPa | 1251.8
303.15 K, 50000 kPa | 1253.6
303.15 K, 55000 kPa | 1255.4
303.15 K, 60000 kPa | 1257.1
304.15 K, 101.33 kPa | 1233.74
305.15 K, 101.33 kPa | 1233.05
306.15 K, 101.33 kPa | 1232.37
307.15 K, 101.33 kPa | 1231.69
308.15 K, 101.33 kPa | 1231
309.15 K, 101.33 kPa | 1230.32
310.15 K, 101.33 kPa | 1229.64
311.15 K, 101.33 kPa | 1228.96
312.15 K, 101.33 kPa | 1228.28
313.15 K, 100 kPa | 1227.5
313.15 K, 101.33 kPa | 1227.61
313.15 K, 250 kPa | 1227.5
313.15 K, 500 kPa | 1227.6
313.15 K, 2000 kPa | 1228.3
313.15 K, 4990 kPa | 1229.5
313.15 K, 10010 kPa | 1231.7
313.15 K, 14990 kPa | 1233.7
313.15 K, 20000 kPa | 1235.7
313.15 K, 25000 kPa | 1237.6
313.15 K, 30010 kPa | 1239.6
313.15 K, 35000 kPa | 1241.5
313.15 K, 40000 kPa | 1243.4
313.15 K, 44990 kPa | 1245.3
313.15 K, 50000 kPa | 1247.1
313.15 K, 54990 kPa | 1248.9
313.15 K, 60000 kPa | 1250.7
314.15 K, 101.33 kPa | 1226.93
315.15 K, 101.33 kPa | 1226.25
316.15 K, 101.33 kPa | 1225.58
317.15 K, 101.33 kPa | 1224.9
318.15 K, 101.33 kPa | 1224.23
319.15 K, 101.33 kPa | 1223.56
320.15 K, 101.33 kPa | 1222.89
321.15 K, 101.33 kPa | 1222.21
322.15 K, 101.33 kPa | 1221.54
323.15 K, 100 kPa | 1220.7
323.15 K, 101.33 kPa | 1220.88
323.15 K, 250 kPa | 1220.8
323.15 K, 500 kPa | 1220.9
323.15 K, 1010 kPa | 1221.1
323.15 K, 2010 kPa | 1221.6
323.15 K, 4990 kPa | 1222.9
323.15 K, 10010 kPa | 1225
323.15 K, 14990 kPa | 1227.1
323.15 K, 20010 kPa | 1229.1
323.15 K, 25000 kPa | 1231.1
323.15 K, 30010 kPa | 1233.1
323.15 K, 35000 kPa | 1235.1
323.15 K, 40000 kPa | 1237
323.15 K, 45000 kPa | 1238.9
323.15 K, 50000 kPa | 1240.8
323.15 K, 55000 kPa | 1242.6
323.15 K, 60000 kPa | 1244.5
324.15 K, 101.33 kPa | 1220.21
325.15 K, 101.33 kPa | 1219.54
326.15 K, 101.33 kPa | 1218.87
327.15 K, 101.33 kPa | 1218.21
328.15 K, 101.33 kPa | 1217.54
329.15 K, 101.33 kPa | 1216.88
330.15 K, 101.33 kPa | 1216.21
331.15 K, 101.33 kPa | 1215.55
332.15 K, 101.33 kPa | 1214.89
333.15 K, 100 kPa | 1214.1
333.15 K, 101.33 kPa | 1214.23
333.15 K, 250 kPa | 1214.1
333.15 K, 500 kPa | 1214.2
333.15 K, 1000 kPa | 1214.4
333.15 K, 2010 kPa | 1214.9
333.15 K, 5000 kPa | 1216.2
333.15 K, 10010 kPa | 1218.4
333.15 K, 14990 kPa | 1220.5
333.15 K, 20000 kPa | 1222.7
333.15 K, 24990 kPa | 1224.7
333.15 K, 30000 kPa | 1226.7
333.15 K, 34990 kPa | 1228.7
333.15 K, 40000 kPa | 1230.7
333.15 K, 45020 kPa | 1232.6
333.15 K, 50000 kPa | 1234.5
333.15 K, 54990 kPa | 1236.4
333.15 K, 60000 kPa | 1238.3
334.15 K, 101.33 kPa | 1213.56
335.15 K, 101.33 kPa | 1212.9
336.15 K, 101.33 kPa | 1212.24
337.15 K, 101.33 kPa | 1211.58
338.15 K, 101.33 kPa | 1210.92
339.15 K, 101.33 kPa | 1210.26
340.15 K, 101.33 kPa | 1209.6
341.15 K, 101.33 kPa | 1208.95
